Laboratory results taken from US4035481A, “Antibiotic A-28086 and process for production thereof” (Eli Lilly and Company, priority 1976, dated 1977).
Values after ≈ are worked out from the molar mass of the structure shown.

Key:
rumen flora = assay: In vitro rumen fluid incubation, volatile fatty acid production; parameters: species or system steer; details: 1 ppm in rumen fluid, 16 hours at 38° C
Excerpt: As discussed hereinabove, efficiency of carbohydrate utilization in ruminants is increased by treatments which stimulate the animal's rumen flora to produce propionate compounds rather than acetate or butyrate compounds. The efficiency of feed use can be monitored by observing the production and concentration of propionate compounds in the rumen, using the following methods:
Rumen fluid is obtained from a steer with a surgically-installed fistula opening into the rumen. The steer is maintained on a high-grain ration. A sample of rumen fluid is strained through four layers of cheesecloth, and the filtrate is collected. The particulate matter retained by the cheesecloth is resuspended in enough physiological buffer to return it to the original volume of the rumen fluid, and this suspension is strained again. The buffer used has the following composition:
The two filtrates are combined and allowed to stand until particulate matter separates to the top. The clear layer is separated, diluted with the same buffer (1:1) and then adjusted to between pH 6.8 to 7.0.
The diluted rumen fluid (10 ml) is placed in a 25-ml flask with 40 mg of the above-described feed, an additional 1 mg of soybean protein, and the compound to be tested. Four replicate flasks are used per treatment. Two sets of four control flasks each are also employed. A zero-time control and an incubated 16-hour control are used. All test flasks are incubated for 16 hours at 38° C. […] The samples are allowed to settle, and the supernatants are analyzed by gas chromatography for propionate, acetate, and butyrate compounds.

[1] = Electrometric titration (pKa of titratable group); details: 80% aqueous dimethylformamide
[2] = tested on: Transmissible Gastro-enteritis virus; format: cell-based; details: tissue-culture test
Eimeria brunetti = assay: Anticoccidial activity in chicks challenged with Eimeria brunetti (Table IX); format: in vivo, broiler cockerels; details: 0.005 % in feed
Excerpt: ^1 Four replicates, 5 broiler cockerels each

sheep = assay: Feed-utilization efficiency in sheep; format: in vivo; details: 56 days
[3] = Acute toxicity in mice, intraperitoneal; details: mouse, in vivo, ip
[4] = tested on: Saccharomyces pastorianum ATCC2366; assay: Disc-diffusion zone of inhibition, Saccharomyces pastorianum ATCC2366; format: cell-based
Staphylococcus aureus = assay: Disc-diffusion zone of inhibition, Staphylococcus aureus; format: cell-based; details: 6 mm pads, 1 mg/ml
[5] = Solubility in organic solvents and water; format: physicochemical
[6] = tested on: Mycobacterium avium ATCC7992; assay: Disc-diffusion zone of inhibition, Mycobacterium avium ATCC7992; format: cell-based; details: 6 mm pads, 1 mg/ml
Sarcina lutea ATCC9341 = assay: Disc-diffusion zone of inhibition, Sarcina lutea ATCC9341; format: cell-based; details: Micrococcus luteus, 6 mm pads, 1 mg/ml
M. hyosynoviae = assay: In vitro broth-dilution MIC, Mycoplasma; format: cell-based, Mycoplasma hyosynoviae
Excerpt: (§1) Activity against Mycoplasma is another useful aspect of the antimicrobial activity of the A-28086 compounds. Mycoplasma species, also known as pleuropneumonia-like (PPLO) organisms, are pathogenic to man and various animals. Agents active against PPLO organisms are especially needed by the poultry industry. The minimal inhibitory concentrations (MIC) of antibiotic A-28086 factor A against various Mycoplasma species, as determined by in vitro broth-dilution studies, are summarized in Table VII below: […]

Clostridium perfringens = assay: microbe, parasite or virus in culture; format: cell-based; details: 24 h
M. synoviae = assay: In vitro broth-dilution MIC, Mycoplasma; format: cell-based; details: Mycoplasmopsis synoviae
Excerpt: as §1

M. gallisepticum = assay: In vitro broth-dilution MIC, Mycoplasma; format: cell-based; details: Mycoplasmoides gallisepticum
Excerpt: as §1

M. hyorhinis = assay: In vitro broth-dilution MIC, Mycoplasma; format: cell-based; details: Mesomycoplasma hyorhinis
Excerpt: as §1

Candida tropicalis = assay: Disc-diffusion zone of inhibition, Candida tropicalis; format: cell-based; details: 6 mm pads, 1 mg/ml
[7] = tested on: Bacillus subtilis ATCC6633; assay: Disc-diffusion zone of inhibition, Bacillus subtilis ATCC6633; format: cell-based; details: 6 mm pads, 1 mg/ml
Fusarium moniliforme = assay: Disc-diffusion zone of inhibition, Fusarium moniliforme; format: cell-based; details: Fusarium verticillioides; 6 mm pads, 1 mg/ml
[8] = tested on: Bacteroides fragilis ssp. vulgatis No. 1563; assay: Agar-dilution MIC, anaerobic bacteria; format: cell-based; details: 24-hour incubation
Procedure: (§2) The minimal inhibitory concentrations (MIC) at which A-28086 factor A inhibits various anaerobic bacteria, determined by standard agar-dilution assay, are summarized in Table VI. Endpoints were read after 24-hour incubation.

[9] = tested on: Bacteroides fragilis ssp. vulgatis 1211; assay: Agar-dilution MIC, anaerobic bacteria; format: cell-based; details: 24-hour incubation
Procedure: as §2

Fusobacterium symbiosum = assay: Agar-dilution MIC, anaerobic bacteria; format: cell-based; details: 24-hour incubation
Procedure: as §2

Eubacterium aerofaciens = assay: Agar-dilution MIC, anaerobic bacteria; format: cell-based; details: Collinsella aerofaciens, 24-hour incubation
Procedure: as §2

[10] = tested on: Clostridium septicum bovine; assay: Agar-dilution MIC, anaerobic bacteria; format: cell-based; details: 24-hour incubation
Procedure: as §2

Clostridium ramosum = assay: Agar-dilution MIC, anaerobic bacteria; format: cell-based; details: Thomasclavelia ramosa, 24-hour incubation
Procedure: as §2

[11] = tested on: Fusobacterium necrophorum; assay: Agar-dilution MIC, anaerobic bacteria; format: cell-based; details: 24-hour incubation
Procedure: as §2

Veillonella alcalescens = assay: Agar-dilution MIC, anaerobic bacteria; format: cell-based; details: Veillonella parvula, 24-hour incubation
Procedure: as §2

Actinomyces bovis = assay: Agar-dilution MIC, anaerobic bacteria; format: cell-based; details: 24-hour incubation
Procedure: as §2

[12] = tested on: Peptostreptococcus intermedius; assay: Agar-dilution MIC, anaerobic bacteria; format: cell-based; details: 24-hour incubation
Procedure: as §2

[13] = tested on: Bacteroides fragilis ssp. fragilis; assay: Agar-dilution MIC, anaerobic bacteria; format: cell-based; details: 24-hour incubation
Procedure: as §2

[14] = tested on: Propionibacterium acnes 79; assay: Agar-dilution MIC, anaerobic bacteria; format: cell-based; details: Cutibacterium acnes, 24-hour incubation
Procedure: as §2

[15] = tested on: Propionibacterium acnes 44; assay: Agar-dilution MIC, anaerobic bacteria; format: cell-based; details: Cutibacterium acnes, 24-hour incubation
Procedure: as §2

Clostridium inocuum = assay: Agar-dilution MIC, anaerobic bacteria; format: cell-based; details: 24-hour incubation
Procedure: as §2

[16] = tested on: Bacteroides fragilis ssp. thetaiotacmicron; assay: Agar-dilution MIC, anaerobic bacteria; format: cell-based; details: 24 h
Procedure: as §2

Clostridium septicum = assay: Agar-dilution MIC, anaerobic bacteria; format: cell-based; details: 24-hour incubation
Procedure: as §2

Peptococcus anaerobius = assay: Agar-dilution MIC, anaerobic bacteria; format: cell-based; details: 24-hour incubation
Procedure: as §2

M. hypopneumoniae = assay: In vitro broth-dilution MIC, Mycoplasma; format: cell-based, Mycoplasma hypopneumoniae
Excerpt: as §1

[17] = Microbiological activity of A-28086-I

## CCCC(=O)OC1C=CC2(OC(C(CC)C(=O)C(C)C(O)C(C)C3OC(C(CC)C(=O)O)C(C)CC3C)C(C)CC2C)OC12CCC(C)(C1CCC(O)(CC)C(C)O1)O2 (centres unmarked)
Rumen flora
  Ratio of Treated to Control, Molar % acetate: 0.91
  Ratio of Treated to Control, Molar % butyrate: 0.81
  Ratio of Treated to Control, Total VFA mM/1: 1.19

## CCCCCC(=O)OC1C=CC2(OC(C(CC)C(=O)C(C)C(O)C(C)C3OC(C(CC)C(=O)O)C(C)CC3C)C(C)CC2C)OC12CCC(C)(C1CCC(O)(CC)C(C)O1)O2 (centres unmarked)
Rumen flora
  Ratio of Treated to Control, Molar % acetate: 0.86
  Ratio of Treated to Control, Molar % butyrate: 0.97
  Ratio of Treated to Control, Total VFA mM/1: 0.99

## CCC(=O)OC1C=CC2(OC(C(CC)C(=O)C(C)C(O)C(C)C3OC(C(CC)C(=O)O)C(C)CC3C)C(C)CC2C)OC12CCC(C)(C1CCC(O)(CC)C(C)O1)O2 (centres unmarked)
Rumen flora
  Ratio of Treated to Control, Molar % acetate: 0.90
  Ratio of Treated to Control, Molar % butyrate: 0.68
  Ratio of Treated to Control, Total VFA mM/1: 1.25

## CCCCC(=O)OC1C=CC2(OC(C(CC)C(=O)C(C)C(O)C(C)C3OC(C(CC)C(=O)O)C(C)CC3C)C(C)CC2C)OC12CCC(C)(C1CCC(O)(CC)C(C)O1)O2 (centres unmarked)
Rumen flora
  Ratio of Treated to Control, Molar % acetate: 0.92
  Ratio of Treated to Control, Molar % butyrate: 0.79
  Ratio of Treated to Control, Total VFA mM/1: 1.18

## CCC(C(=O)O)C1OC(C(C)C(O)C(C)C(=O)C(CC)C2OC3(C=CC(OC(C)=O)C4(CCC(C)(C5CCC(O)(CC)C(C)O5)O4)O3)C(C)CC2C)C(C)CC1C (centres unmarked) [A-28086 factor A acetyl ester derivative]
Rumen flora
  Ratio of Treated to Control, Molar % acetate: 0.79
  Ratio of Treated to Control, Molar % butyrate: 0.76
  Ratio of Treated to Control, Total VFA mM/1: 1.04
[1]
  pKa: 8.5

## CCC(C(=O)O)C1OC(C(C)C(O)C(C)C(=O)C(CC)C2OC3(C=CC(O)C4(CCC(C)(C5CCC(O)(CC)C(C)O5)O4)O3)C(C)CC2C)C(C)CC1C (centres unmarked) [A-28086 factor A]
[2]
  antiviral activity: active
Eimeria brunetti
  Average Lesion Score: 1.2
  Oocysts Passed Percent Reduction: 58%
  Percent Mortality: 0%
  Percent Weight Gain: 88%
sheep; 9 g per ton of feed
  Percent Improvement: 12%
sheep; 18 g per ton of feed
  Percent Improvement: 1%
Rumen flora
  Ratio of Treated to Control, Molar % acetate: 0.94
  Ratio of Treated to Control, Molar % butyrate: 0.87
  Ratio of Treated to Control, Total VFA mM/1: 1.26
[3]
  LD50: 7.15 mg/kg
[4]
  zone of inhibition at 1000 µg/mL: 17 mm
Staphylococcus aureus
  zone of inhibition at 1000 µg/mL: 19 mm
[5]; methanol, ethanol, dimethylformamide, dimethyl sulfoxide, ethyl acetate, chloroform, acetone, benzene
  solubility in organic solvents: soluble
[5]; such as hexane
  solubility in nonpolar organic solvents: only slightly soluble
[5]; water
  solubility in water: insoluble
[6]
  zone of inhibition at 1000 µg/mL: 12 mm
Sarcina lutea ATCC9341
  zone of inhibition at 1000 µg/mL: 26 mm
M. hyosynoviae
  MIC: 6.25 µg/mL (≈ 8.17 µM)
Clostridium perfringens
  MIC: < 0.5 µg/mL
M. synoviae
  MIC: 6.25 µg/mL (≈ 8.17 µM)
M. gallisepticum
  MIC: 12.5 µg/mL (≈ 16.3 µM)
M. hyorhinis
  MIC: 12.5 µg/mL (≈ 16.3 µM)
Candida tropicalis
  zone of inhibition at 1000 µg/mL: 14 mm
[1]
  pKa: 7.9
[7]
  zone of inhibition at 1000 µg/mL: 28 mm
Fusarium moniliforme
  zone of inhibition at 1000 µg/mL: 12 mm
[8]
  MIC: 8 µg/mL (≈ 10.5 µM)
[9]
  MIC: 2 µg/mL (≈ 2.61 µM)
Fusobacterium symbiosum
  MIC: < 0.5 µg/mL
Eubacterium aerofaciens
  MIC: 1 µg/mL (≈ 1.31 µM)
[10]
  MIC: < 0.5 µg/mL
Clostridium ramosum
  MIC: 4 µg/mL (≈ 5.23 µM)
[11]
  MIC: 8 µg/mL (≈ 10.5 µM)
Veillonella alcalescens
  MIC: 16 µg/mL (≈ 20.9 µM)
Actinomyces bovis
  MIC: < 0.5 µg/mL
[12]
  MIC: 16 µg/mL (≈ 20.9 µM)
[13]
  MIC: 8 µg/mL (≈ 10.5 µM)
[14]
  MIC: 2 µg/mL (≈ 2.61 µM)
[15]
  MIC: 16 µg/mL (≈ 20.9 µM)
Clostridium inocuum
  MIC: < 0.5 µg/mL
[16]
  MIC: 8 µg/mL (≈ 10.5 µM)
Clostridium septicum
  MIC: < 0.5 µg/mL
Peptococcus anaerobius
  MIC: < 0.5 µg/mL
M. hypopneumoniae
  MIC: 6.25 µg/mL (≈ 8.17 µM)

## CCC(C(=O)OC)C1OC(C(C)C(O)C(C)C(=O)C(CC)C2OC3(C=CC(O)C4(CCC(C)(C5CCC(O)(CC)C(C)O5)O4)O3)C(C)CC2C)C(C)CC1C (centres unmarked) [A-28086-I]
[17]
  microbiological activity: not microbiologically active
